Results reported in the Kinase Knowledgebase extract (Sharma et al. 2016).
pIC50: −log10 of the molar value.

These compounds were tested against PIK3CG (human) (UniProt P48736) (assay: Assessment of PIK3CG Kinase Activity).
Sequence of PIK3CG (human) (P48736 whole entry, looked up): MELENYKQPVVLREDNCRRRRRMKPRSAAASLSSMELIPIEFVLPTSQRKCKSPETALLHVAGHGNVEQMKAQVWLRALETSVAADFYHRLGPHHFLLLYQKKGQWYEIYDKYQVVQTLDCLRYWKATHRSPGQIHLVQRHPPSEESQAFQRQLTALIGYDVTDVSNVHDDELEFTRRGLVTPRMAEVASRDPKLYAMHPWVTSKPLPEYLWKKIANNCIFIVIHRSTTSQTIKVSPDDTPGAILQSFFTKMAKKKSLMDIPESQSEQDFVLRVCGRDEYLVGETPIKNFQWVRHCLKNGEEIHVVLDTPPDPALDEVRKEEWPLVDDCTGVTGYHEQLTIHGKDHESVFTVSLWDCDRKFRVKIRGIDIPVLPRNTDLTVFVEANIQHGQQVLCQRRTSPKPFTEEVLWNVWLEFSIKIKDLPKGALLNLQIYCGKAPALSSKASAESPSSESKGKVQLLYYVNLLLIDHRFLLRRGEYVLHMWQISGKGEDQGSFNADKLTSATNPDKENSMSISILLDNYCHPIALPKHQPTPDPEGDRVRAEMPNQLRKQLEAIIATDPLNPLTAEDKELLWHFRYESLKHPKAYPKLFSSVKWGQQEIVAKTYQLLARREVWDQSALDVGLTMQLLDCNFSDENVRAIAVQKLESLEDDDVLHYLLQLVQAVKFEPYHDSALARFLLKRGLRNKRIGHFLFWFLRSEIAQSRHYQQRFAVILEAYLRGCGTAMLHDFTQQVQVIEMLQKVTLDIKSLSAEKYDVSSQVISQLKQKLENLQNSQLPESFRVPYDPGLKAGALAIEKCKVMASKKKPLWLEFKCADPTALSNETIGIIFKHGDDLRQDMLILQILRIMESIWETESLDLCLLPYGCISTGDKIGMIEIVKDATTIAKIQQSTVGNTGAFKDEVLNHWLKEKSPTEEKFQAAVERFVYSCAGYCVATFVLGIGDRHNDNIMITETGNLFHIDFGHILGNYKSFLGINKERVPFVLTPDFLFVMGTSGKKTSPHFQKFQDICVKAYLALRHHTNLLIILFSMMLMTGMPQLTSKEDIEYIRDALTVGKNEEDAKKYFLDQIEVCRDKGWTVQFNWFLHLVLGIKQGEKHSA
With `CC(=O)Nc1nc2c(s1)-c1c(cnn1-c1ccc(C(=O)N[C@H](Cc3cc4ccccc4[nH]3)C(N)=O)cc1Cl)CC2` the pIC50 was over 6.10. With `CC(=O)Nc1nc2c(s1)-c1c(c(-c3ccco3)nn1-c1ccc(C(=O)N[C@H]3CC[C@@H](N4CCCC4)CC3)cc1Cl)CC2` the pIC50 was over 6.10. In the case of `CC(=O)Nc1nc2c(s1)-c1c(cnn1-c1ccc(C(=O)NCc3ccccc3C(N)=O)cc1)CC2`, the pIC50 was over 6.10. `CC(=O)Nc1nc2c(s1)-c1c(cnn1C(=O)C1CC1)CC2` showed a pIC50 of over 6.10. `CC=Cn1cc2c(n1)-c1sc(NC(C)=O)nc1CC2` was tested, and the pIC50 was over 6.10. For `CC(=O)Nc1nc2c(s1)-c1c(cnn1-c1ccc(C(=O)N[C@@H](Cc3ccccc3)C(N)=O)cc1Cl)CC2`, the pIC50 was over 6.10. For `CC(=O)Nc1nc2c(s1)-c1c(cnn1-c1cc(C)ccc1C)CC2`, the pIC50 was over 6.10. For `CC(=O)Nc1nc2c(s1)-c1nn(-c3ccc(C(=O)NC4CCN(C5CCCC5)CC4)cc3Cl)c(-c3ccco3)c1CC2`, the pIC50 was over 6.10. In the case of `CC(=O)Nc1nc2c(s1)-c1c(cnn1-c1ccc(C(=O)NC(CN3CCOCC3)CN3CCOCC3)cc1)CC2`, the pIC50 was over 6.10. Work on `NCC#CCNC(=O)Nc1nc2c(s1)-c1c(cnn1-c1ccccc1)CC2` yielded a pIC50 of over 6.10. `CC(=O)Nc1nc2c(s1)-c1nn(C3C=CCCC3)cc1CC2` (centres undefined) was tested, and the pIC50 was over 6.10. Compound `CC(=O)Nc1nc2c(s1)-c1c(cnn1-c1ccc(C(=O)N[C@H]3CC[C@@H](N4CCN(c5ccccc5)CC4)CC3)cc1)CC2` has a pIC50 of over 6.10. `CC(=O)Nc1nc2c(s1)-c1c(cnn1-c1ccc(C(=O)N[C@@H]3CCc4nc(N)sc4C3)cc1)CC2` showed a pIC50 of over 6.10. In the case of `CC(=O)Nc1nc2c(s1)-c1c(cnn1-c1ccc(C(=O)N[C@H]3CCc4nc(N)sc4C3)cc1Cl)CC2`, the pIC50 was over 6.10. Compound `CC(=O)Nc1nc2c(s1)-c1c(c(-c3ccco3)nn1-c1ccccc1C(F)(F)F)CC2` has a pIC50 of over 6.10. Work on `CC(=O)Nc1nc2c(s1)-c1c(cnn1-c1ccc(C(=O)N3CCC(O)CC3)cc1)CC2` yielded a pIC50 of over 6.10. With `CC(=O)Nc1nc2c(s1)-c1c(c(-c3ccco3)nn1-c1ccccc1)CC2` the pIC50 was over 6.10. `CC(=O)Nc1nc2c(s1)-c1nc(N(C)CCN3CCN(C)CC3)ncc1CC2` was tested, and the pIC50 was over 6.10. Work on `CN(C)c1ncc2c(n1)-c1sc(N)nc1CC2` yielded a pIC50 of over 6.10. Compound `CC(=O)Nc1ncc2c(n1)-c1sc(NC(C)=O)nc1CC2` has a pIC50 of over 6.10. `CC(=O)Nc1nc2c(s1)-c1c(c(-c3ccccc3)nn1-c1ccccc1Cl)CC2` showed a pIC50 of over 6.10. Compound `CC(=O)Nc1nc2c(s1)-c1c(cnn1-c1ccc(C(=O)NCCc3cccnc3)cc1)CC2` has a pIC50 of over 6.10. `CC(=O)Nc1nc2c(s1)-c1c(cnn1-c1ccc(C(=O)Nc3ccc(C4CCN(C)CC4)cc3)cc1)CC2` showed a pIC50 of over 6.10. `CC(=O)Nc1nc2c(s1)-c1c(cnn1-c1ccc(C(=O)NCCc3cn[nH]c3)cc1)CC2` showed a pIC50 of over 6.10. Compound `CC(=O)Nc1nc2c(s1)-c1nc(C3CCCCC3)ncc1CC2` has a pIC50 of over 6.10. For `C=CCNC(=O)c1ccc(-n2ncc3c2-c2sc(NC(C)=O)nc2CC3)cc1`, the pIC50 was over 6.10. `NC(=O)Nc1nc2c(s1)-c1nc(-c3ccccc3)ncc1CC2` showed a pIC50 of over 6.10. For `CC(=O)Nc1nc2c(s1)-c1nc(-c3c(Cl)cccc3Cl)ncc1CC2`, the pIC50 was over 6.10. For `CC(=O)Nc1nc2c(s1)-c1c(cnn1-c1ccc(CC(=O)NCCCN(C)C)cc1)CC2`, the pIC50 was over 6.10. `CC(=O)Nc1nc2c(s1)-c1c(c(N)nn1-c1ccccc1)CC2` was tested, and the pIC50 was over 6.10. In the case of `CC(=O)Nc1nc2c(s1)-c1c(cnn1CCC(C)C)CC2`, the pIC50 was over 6.10. `CC(=O)Nc1nc2c(s1)-c1c(cnn1C(=O)C(C)C)CC2` was tested, and the pIC50 was over 6.10. Work on `Cc1ccccc1-c1ncc2c(n1)-c1sc(NC(N)=O)nc1CC2` yielded a pIC50 of over 6.10. `CC(=O)Nc1nc2c(s1)-c1c(cnn1-c1ccc(CC(=O)N3CCN(C(C)=O)CC3)cc1)CC2` showed a pIC50 of over 6.10. With `CCSc1ncc2c(n1)-c1sc(NC(C)=O)nc1CC2` the pIC50 was over 6.10. Work on `CC(=O)Nc1nc2c(s1)-c1c(cnn1-c1ccc(CC(=O)NCC(=O)N(C)C)cc1)CC2` yielded a pIC50 of over 6.10. In the case of `CC(=O)Nc1nc2c(s1)-c1c(c(-c3ccco3)nn1-c1ccccc1C)CC2`, the pIC50 was over 6.10. For `CC(=O)Nc1nc2c(s1)-c1c(cnn1-c1ccc(S(C)(=O)=O)cc1)CC2`, the pIC50 was over 6.10. Work on `CN(C)C(=O)Nc1nc2c(s1)-c1c(cnn1-c1ccccc1Cl)C2` yielded a pIC50 of over 6.10. `CC(=O)Nc1nc2c(s1)-c1c(c(C(C)C)nn1-c1ccc(C(=O)NCc3ccncc3)cc1Cl)CC2` gave a pIC50 of over 6.10. `CNCCNC(=O)Nc1nc2c(s1)-c1nc(-c3ccccc3)ncc1CC2` gave a pIC50 of over 6.10. `CC(=O)Nc1nc2c(s1)-c1nn(C(N)=O)cc1CC2` showed a pIC50 of over 6.10. Compound `CC(=O)Nc1nc2c(s1)-c1c(c(C(N)=O)nn1-c1ccccc1Cl)CC2` has a pIC50 of over 6.10. `CC(=O)Nc1nc2c(s1)-c1nc(-c3ccccc3)ncc1CC2` showed a pIC50 of over 6.10. With `CN(C)CCCC(=O)Nc1nc2c(s1)-c1nc(-c3ccccc3)ncc1CC2` the pIC50 was over 6.10. In the case of `CC(=O)Nc1nc2c(s1)-c1nc(-c3ccccc3Cl)nc(O)c1CC2`, the pIC50 was over 6.10. `O=C(Nc1nc2c(s1)-c1nc(-c3ccccc3)ncc1CC2)N1CCCC1` showed a pIC50 of over 6.10. With `CC(=O)Nc1nc2c(s1)-c1c(cnn1-c1ccc(C(=O)N[C@@H](C(N)=O)C(C)C)cc1Cl)CC2` the pIC50 was over 6.10. With `CC(=O)Nc1nc2c(s1)-c1c(cnn1-c1ccc(C(=O)N3CCc4[nH]cnc4C3)cc1)CC2` the pIC50 was over 6.10. With `CC(=O)Nc1nc2c(s1)-c1c(c(C#C[Si](C)(C)C)nn1-c1ccccc1Cl)CC2` the pIC50 was over 6.10. Compound `CC(=O)Nc1nc2c(s1)-c1c(cnn1-c1ccc(C(=O)N[C@H]3CC[C@@H](N4CCOCC4)CC3)cc1)CC2` has a pIC50 of over 6.10. With `CNc1ncc2c(n1)-c1sc(NC(C)=O)nc1CC2` the pIC50 was over 6.10. For `CC(=O)Nc1nc2c(s1)-c1c(c(-c3cn(C)cn3)nn1-c1ccccc1C)CC2`, the pIC50 was over 6.10. `CC(=O)Nc1nc2c(s1)-c1c(cnn1-c1ccc(CC(=O)N3CCCC3c3ccccn3)cc1)CC2` (centres undefined) gave a pIC50 of over 6.10. In the case of `CC(=O)Nc1nc2c(s1)-c1c(c(NC(=O)OC(C)C)nn1-c1ccccc1Cl)CC2`, the pIC50 was over 6.10. With `CNS(=O)(=O)c1ccc(-n2ncc3c2-c2sc(NC(C)=O)nc2CC3)cc1` the pIC50 was over 6.10. With `CC(=O)Nc1nc2c(s1)-c1c(cnn1-c1ccc(CC(=O)NCCCN3CCOCC3)cc1)CC2` the pIC50 was over 6.10. `CC(=O)Nc1nc2c(s1)-c1c(cnn1-c1ccc(C(=O)N[C@H]3CCc4nc(N)sc4C3)cc1)CC2` was tested, and the pIC50 was over 6.10. Compound `CC(=O)Nc1nc2c(s1)-c1c(c([C@H]3CCCO3)nn1-c1ccc(C(=O)N[C@H]3CC[C@@H](N4CCCC4)CC3)cc1Cl)CC2` has a pIC50 of over 6.10. For `O=C(Nc1nc2c(s1)-c1c(cnn1-c1ccccc1)CC2)N1CCOCC1`, the pIC50 was over 6.10. `CC(=O)Nc1nc2c(s1)-c1nc(N(C)CCCN(C)C)ncc1CC2` was tested, and the pIC50 was over 6.10. For `CC(=O)Nc1nc2c(s1)-c1c(cnn1-c1ccc(C(=O)N3CCOCC3)cc1)CC2`, the pIC50 was over 6.10. `CC(=O)Nc1nc2c(s1)-c1c(cnn1-c1ccc(C(=O)N[C@H]3CC[C@@H](N4CCN(C)CC4)CC3)cc1)CC2` gave a pIC50 of over 6.10. For `CC(=O)Nc1nc2c(s1)-c1c(cnn1C1CCN(C(=O)C(F)(F)F)CC1)CC2`, the pIC50 was over 6.10. `CC(=O)Nc1nc2c(s1)-c1c(cnn1-c1ccc(C(=O)N[C@@H](CCc3ccccc3)C(N)=O)cc1Cl)CC2` was tested, and the pIC50 was over 6.10. For `CC(=O)Nc1nc2c(s1)-c1c(cnn1-c1ccc(Cl)cc1Cl)CC2`, the pIC50 was over 6.10. Compound `CC(=O)Nc1nc2c(s1)-c1nc(COc3ccccc3Cl)ncc1CC2` has a pIC50 of over 6.10. `CC(C)(C)NC(=O)NCC#CCNC(=O)Nc1nc2c(s1)-c1c(cnn1-c1ccccc1)CC2` was tested, and the pIC50 was over 6.10. `CC(=O)Nc1nc2c(s1)-c1c(cnn1-c1ccc(C(=O)N[C@H](Cc3cnc[nH]3)C(N)=O)cc1Cl)CC2` gave a pIC50 of over 6.10.
